Results published in patent US20240391862A1, “(1,4,5-TRISUBSTITUTED-1H-PYRAZOL-3-YL)OXY-2-ALKOXY ALKYL ACIDS AND THEIR DERIVATIVES, THEIR SALTS AND THEIR USE AS HERBICIDAL AGENTS” (Bayer AKtiengesellschaft, priority 2021, published 2024).

Columns and labels:
Assay in all cases: Post-emergence herbicidal effect, greenhouse pot test
LOLRI = format: in vivo, Lolium rigidum
Excerpt: (§1) • ALOMY: Alopecurus myosuroides SETVI: Setaria viridis • AVEFA: Avena fatua POLCO: Fallopia convolvulus • AMARE: Amaranthus retroflexus ECHCG: Echinochloa crus-galli • LOLRJ: Lolium rigidum STEME: Stellaria media • VERPE: Veronica persica MATIN: Tripleurospermum inodorum • DIGSA: Digitaria sanguinalis ABUTH: Abutylon threophrasti • TRZAS: Triticum aestivum VIOTR: Viola tricolor • BRSNW: Brassica napus ZEAMX: Zea mays • PHBPU: Ipomoea purpurea GLXMA: Glycine max • ORYSA: Oryza sativa HORMU: Hordeum murinum
(§2) Seeds of monocotyledonous and dicotyledonous weeds and crop plants are placed in sandy loam in plastic or organic planting pots, covered with soil and cultivated in a greenhouse under controlled growth conditions. 2 to 3 weeks after sowing, the trial plants are treated at the one-leaf stage. The compounds of the invention, formulated in the form of wettable powders (WP) or as emulsion concentrates (EC), are then sprayed onto the green parts of the plants as aqueous suspension or emulsion with addition of 0.5% additive at a water application rate of 600 l/ha (converted). After the test plants have been kept in the greenhouse under optimum growth conditions for about 3 weeks, the activity of the preparations is rated visually in comparison to untreated controls. For example, 100% activity=the plants have died, 0% activity=like control plants.
(§3) Tables 20a to 38c below show the effects/crop compatibilities of selected compounds of the general formula (I) on various harmful plants at an application rate corresponding to 20 to 320 g/ha, which were obtained by the trial procedure specified above.

POLCO = format: in vivo, Fallopia convolvulus
Excerpt: as §1, §2, §3

PHBPU = format: in vivo, Ipomoea purpurea
Excerpt: as §1, §2, §3

ABUTH = format: in vivo, Abutilon theophrasti; conditions: visual rating about 3 weeks after treatment
Excerpt: as §1, §2, §3

KCHSC = format: in vivo; conditions: 320 g/ha
Description: as §2, with “plants. Tables 20a to 38c below show the effects/crop compatibilities of selected compounds of the general formula (I) on various harmful plants at an application rate corresponding to 20 to 320 g/ha, which were obtained by the trial procedure specified above.” for “plants.”

MATIN = format: in vivo, Tripleurospermum inodorum
Excerpt: as §1, §2, §3

ALOMY = format: in vivo, Alopecurus myosuroides; conditions: visual rating about 3 weeks after treatment
Excerpt: as §1, §2, §3

VIOTR = format: in vivo, Viola tricolor
Excerpt: as §1, §2, §3

VERPE = format: in vivo, Veronica persica
Excerpt: as §1, §2, §3

SETVI = format: in vivo, Setaria viridis
Excerpt: as §1, §2, §3

AVEFA = format: in vivo, Avena fatua; conditions: visual rating about 3 weeks after treatment
Excerpt: as §1, §2, §3

ECHCG = format: in vivo, Echinochloa crus-galli
Excerpt: as §1, §2, §3

AMARE = format: in vivo, Amaranthus retroflexus; conditions: Amaranthus retroflexus, 504 h, 320 g/ha, visual rating about 3 weeks after treatment, read-out: Post-emergence effect against AMARE
Excerpt: as §1, §2, §3

COC(Oc1nn(-c2cc(F)ccc2F)c(-c2cncc(F)c2)c1C1CC1)C(=O)O (stereo not shown) [Example I-109]
90%: pest or weed control at 80 g/ha (LOLRI; Lolium rigidum, 504 h, 80 g/ha, read-out: Post-emergence effect against LOLRI in %) | pest or weed control at 320 g/ha (LOLRI; Lolium rigidum, 504 h, 320 g/ha, read-out: Post-emergence effect against LOLRI in %) | pest or weed control at 320 g/ha (POLCO; Fallopia convolvulus, 504 h, 320 g/ha, read-out: Post-emergence effect against POLCO in %) | pest or weed control at 80 g/ha (PHBPU; Ipomoea purpurea, 504 h, 80 g/ha, read-out: Post-emergence effect against PHBPU in %) | pest or weed control at 320 g/ha (PHBPU; Ipomoea purpurea, 504 h, 320 g/ha, read-out: Post-emergence effect against PHBPU in %) | pest or weed control at 320 g/ha (ABUTH; Abutilon theophrasti, 504 h, 320 g/ha, read-out: Post-emergence effect against ABUTH) | pest or weed control at 320 g/ha (ALOMY; Alopecurus myosuroides, 504 h, 320 g/ha, read-out: Post-emergence effect against ALOMY) | pest or weed control at 80 g/ha (VIOTR; Viola tricolor, 504 h, 80 g/ha, read-out: Post-emergence effect against VIOTR in %) | pest or weed control at 320 g/ha (VIOTR; Viola tricolor, 504 h, 320 g/ha, read-out: Post-emergence effect against VIOTR in %) | pest or weed control at 320 g/ha (AVEFA; Avena fatua, 504 h, 320 g/ha, read-out: Post-emergence effect against AVEFA) | pest or weed control at 80 g/ha (ECHCG; Echinochloa crus-galli, 504 h, 80 g/ha, read-out: Post-emergence effect against ECHCG in %) | pest or weed control at 320 g/ha (ECHCG; Echinochloa crus-galli, 504 h, 320 g/ha, read-out: Post-emergence effect against ECHCG in %)
80%: pest or weed control at 80 g/ha (POLCO; Fallopia convolvulus, 504 h, 80 g/ha, read-out: Post-emergence effect against POLCO in %) | pest or weed control at 20 g/ha (ABUTH; Abutilon theophrasti, 504 h, 20 g/ha, read-out: Post-emergence effect against ABUTH) | pest or weed control at 80 g/ha (ABUTH; Abutilon theophrasti, 504 h, 80 g/ha, read-out: Post-emergence effect against ABUTH) | pest or weed control at 320 g/ha (KCHSC; 504 h, read-out: Post-emergence effect against KCHSC in %) | pest or weed control at 320 g/ha (MATIN; Tripleurospermum inodorum, 504 h, 320 g/ha, read-out: Post-emergence effect against MATIN in %) | pest or weed control at 20 g/ha (VERPE; Veronica persica, 504 h, 20 g/ha, read-out: Post-emergence effect against VERPE in %) | pest or weed control at 80 g/ha (VERPE; Veronica persica, 504 h, 80 g/ha, read-out: Post-emergence effect against VERPE in %) | pest or weed control at 320 g/ha (VERPE; Veronica persica, 504 h, 320 g/ha, read-out: Post-emergence effect against VERPE in %) | pest or weed control at 320 g/ha (SETVI; Setaria viridis, 504 h, 320 g/ha, read-out: Post-emergence effect against SETVI in %) | pest or weed control at 80 g/ha (AVEFA; Avena fatua, 504 h, 80 g/ha, read-out: Post-emergence effect against AVEFA) | pest or weed control at 20 g/ha (ECHCG; Echinochloa crus-galli, 504 h, 20 g/ha, visual rating about 3 weeks after treatment, read-out: Post-emergence effect against ECHCG)

COC(Oc1nn(-c2cc(F)ccc2F)c(-c2cncc(F)c2)c1C1CC1)C(=O)O (stereo not shown) [Example I-110]
80%: pest or weed control at 320 g/ha (AMARE) | Post-emergence effect against POLCO in % (POLCO; 80 g/ha) | pest or weed control at 20 g/ha (POLCO; Fallopia convolvulus, 504 h, 20 g/ha, read-out: Post-emergence effect against POLCO in %) | Post-emergence effect against ABUTH (ABUTH; 20 g/ha) | Post-emergence effect against KCHSC in % (KCHSC) | Post-emergence effect against MATIN in % (MATIN; 320 g/ha) | pest or weed control at 80 g/ha (MATIN; Tripleurospermum inodorum, 504 h, 80 g/ha, read-out: Post-emergence effect against MATIN in %) | pest or weed control at 80 g/ha (ALOMY; Alopecurus myosuroides, 504 h, 80 g/ha, read-out: Post-emergence effect against ALOMY) | Post-emergence effect against VIOTR in % (VIOTR; 80 g/ha) | Post-emergence effect against VIOTR in % (VIOTR; 320 g/ha) | pest or weed control at 20 g/ha (VIOTR; Viola tricolor, 504 h, 20 g/ha, read-out: Post-emergence effect against VIOTR in %) | Post-emergence effect against VERPE in % (VERPE; 20 g/ha) | Post-emergence effect against VERPE in % (VERPE; 80 g/ha) | Post-emergence effect against SETVI in % (SETVI; 320 g/ha) | pest or weed control at 80 g/ha (SETVI; Setaria viridis, 504 h, 80 g/ha, read-out: Post-emergence effect against SETVI in %)
90%: Post-emergence effect against LOLRI in % (LOLRI; 320 g/ha) | Post-emergence effect against POLCO in % (POLCO; 320 g/ha) | Post-emergence effect against PHBPU in % (PHBPU; 80 g/ha) | Post-emergence effect against PHBPU in % (PHBPU; 320 g/ha) | pest or weed control at 20 g/ha (PHBPU; Ipomoea purpurea, 504 h, 20 g/ha, read-out: Post-emergence effect against PHBPU in %) | Post-emergence effect against ABUTH (ABUTH; 80 g/ha) | Post-emergence effect against ABUTH (ABUTH; 320 g/ha) | Post-emergence effect against VERPE in % (VERPE; 320 g/ha) | Post-emergence effect against AVEFA (AVEFA; 80 g/ha) | Post-emergence effect against AVEFA (AVEFA; 320 g/ha) | Post-emergence effect against ECHCG (ECHCG; 20 g/ha, visual rating about 3 weeks after treatment) | Post-emergence effect against ECHCG in % (ECHCG; 80 g/ha) | Post-emergence effect against ECHCG in % (ECHCG; 320 g/ha)
100%: Post-emergence effect against ALOMY (ALOMY; 320 g/ha)
